Reference: patent publication US20070049564A1 (Wyeth, priority 2005, published 2007)
≈ marks a conversion by molar mass, not a printed value. Read-outs that look alike come from different tables or passages of the source.

Legend:
Assay in all cases: MIC, broth microdilution
P. aeruginosa GC 2214 = conditions: Pseudomonas aeruginosa
S. aureus GC 6469 = conditions: Staphylococcus aureus
S. aureus GC 6467 = conditions: Staphylococcus aureus
E. coli GC 4560 = conditions: Escherichia coli
E. coli GC 2233 = conditions: Escherichia coli
E. faecalis GC 2265 = conditions: Enterococcus faecalis
E. coli GC 2272 = conditions: Escherichia coli
E. coli GC 2270 = conditions: Escherichia coli
E. coli GC 6465 = conditions: Escherichia coli
S. aureus GC 1131 = conditions: Staphylococcus aureus
S. aureus GC 1079 = conditions: Staphylococcus aureus
E. faecium GC 2243 = conditions: Enterococcus faecium
S. epidermidis GC 4935 = conditions: Staphylococcus epidermidis
S. aureus GC 6335 = conditions: Staphylococcus aureus
c. albicans GC 3066 = system: c. albicans GC 3066
E. coli GC 2271 = conditions: Escherichia coli
E. faecalis GC 2267 = conditions: Enterococcus faecalis
E. coli GC 3226 = conditions: Escherichia coli
E. coli GC 1073 = conditions: Escherichia coli
E. coli GC 2203 = conditions: Escherichia coli

MIC (P. aeruginosa GC 2214; GC2214, read-out: MINIMAL INHIBITORY CONCENTRATION MIC, Human Serum): > 64 mg/L
MIC (P. aeruginosa GC 2214; GC2214, read-out: MINIMAL INHIBITORY CONCENTRATION MIC, Mouse Serum): 64 mg/L (≈ 80.8 µM)
MIC (P. aeruginosa GC 2214; GC2214, read-out: MINIMAL INHIBITORY CONCENTRATION MIC, Water): > 64 mg/L
MIC (S. aureus GC 6469; GC6469, read-out: MINIMAL INHIBITORY CONCENTRATION MIC, Human Serum): 1 mg/L (≈ 1.26 µM)
MIC (S. aureus GC 6469; GC6469, read-out: MINIMAL INHIBITORY CONCENTRATION MIC, Mouse Serum): 1 mg/L (≈ 1.26 µM)
MIC (S. aureus GC 6469; GC6469, read-out: MINIMAL INHIBITORY CONCENTRATION MIC, Water): 2 mg/L (≈ 2.53 µM)
MIC (S. aureus GC 6467; GC6467, read-out: MINIMAL INHIBITORY CONCENTRATION MIC, Human Serum): 1 mg/L (≈ 1.26 µM)
MIC (S. aureus GC 6467; GC6467, read-out: MINIMAL INHIBITORY CONCENTRATION MIC, Mouse Serum): 0.5 mg/L (≈ 0.631 µM)
MIC (S. aureus GC 6467; GC6467, read-out: MINIMAL INHIBITORY CONCENTRATION MIC, Water): 2 mg/L (≈ 2.53 µM)
MIC (E. coli GC 4560; GC4560, read-out: MINIMAL INHIBITORY CONCENTRATION MIC, Human Serum): 8 mg/L (≈ 10.1 µM)
MIC (E. coli GC 4560; GC4560, read-out: MINIMAL INHIBITORY CONCENTRATION MIC, Mouse Serum): 1 mg/L (≈ 1.26 µM)
MIC (E. coli GC 4560; GC4560, read-out: MINIMAL INHIBITORY CONCENTRATION MIC, Water): 32 mg/L (≈ 40.4 µM)
MIC (E. coli GC 2233; GC2233, read-out: MINIMAL INHIBITORY CONCENTRATION MIC, Human Serum): 32 mg/L (≈ 40.4 µM)
MIC (E. coli GC 2233; GC2233, read-out: MINIMAL INHIBITORY CONCENTRATION MIC, Mouse Serum): 2 mg/L (≈ 2.53 µM)
MIC (E. coli GC 2233; GC2233, read-out: MINIMAL INHIBITORY CONCENTRATION MIC, Water): > 64 mg/L
MIC (E. faecalis GC 2265; GC2265, read-out: MINIMAL INHIBITORY CONCENTRATION MIC, Human Serum): 4 mg/L (≈ 5.05 µM)
MIC (E. faecalis GC 2265; GC2265, read-out: MINIMAL INHIBITORY CONCENTRATION MIC, Mouse Serum): 1 mg/L (≈ 1.26 µM)
MIC (E. faecalis GC 2265; GC2265, read-out: MINIMAL INHIBITORY CONCENTRATION MIC, Water): 8 mg/L (≈ 10.1 µM)
MIC (E. coli GC 2272; GC2272, read-out: MINIMAL INHIBITORY CONCENTRATION MIC, Human Serum): 32 mg/L (≈ 40.4 µM)
MIC (E. coli GC 2272; GC2272, read-out: MINIMAL INHIBITORY CONCENTRATION MIC, Mouse Serum): 2 mg/L (≈ 2.53 µM)
MIC (E. coli GC 2272; GC2272, read-out: MINIMAL INHIBITORY CONCENTRATION MIC, Water): > 64 mg/L
MIC (E. coli GC 2270; GC2270, read-out: MINIMAL INHIBITORY CONCENTRATION MIC, Human Serum): 32 mg/L (≈ 40.4 µM)
MIC (E. coli GC 2270; GC2270, read-out: MINIMAL INHIBITORY CONCENTRATION MIC, Mouse Serum): 1 mg/L (≈ 1.26 µM)
MIC (E. coli GC 2270; GC2270, read-out: MINIMAL INHIBITORY CONCENTRATION MIC, Water): > 64 mg/L
MIC (E. coli GC 6465; GC6465, read-out: MINIMAL INHIBITORY CONCENTRATION MIC, Human Serum): 32 mg/L (≈ 40.4 µM)
MIC (E. coli GC 6465; GC6465, read-out: MINIMAL INHIBITORY CONCENTRATION MIC, Mouse Serum): 4 mg/L (≈ 5.05 µM)
MIC (E. coli GC 6465; GC6465, read-out: MINIMAL INHIBITORY CONCENTRATION MIC, Water): > 64 mg/L
MIC (S. aureus GC 1131; GC1131, read-out: MINIMAL INHIBITORY CONCENTRATION MIC, Human Serum): 0.5 mg/L (≈ 0.631 µM)
MIC (S. aureus GC 1131; GC1131, read-out: MINIMAL INHIBITORY CONCENTRATION MIC, Mouse Serum): 0.5 mg/L (≈ 0.631 µM)
MIC (S. aureus GC 1131; GC1131, read-out: MINIMAL INHIBITORY CONCENTRATION MIC, Water): 1 mg/L (≈ 1.26 µM)
MIC (S. aureus GC 1079; GC1079, read-out: MINIMAL INHIBITORY CONCENTRATION MIC, Human Serum): 1 mg/L (≈ 1.26 µM)
MIC (S. aureus GC 1079; GC1079, read-out: MINIMAL INHIBITORY CONCENTRATION MIC, Mouse Serum): 0.5 mg/L (≈ 0.631 µM)
MIC (S. aureus GC 1079; GC1079, read-out: MINIMAL INHIBITORY CONCENTRATION MIC, Water): 2 mg/L (≈ 2.53 µM)
MIC (E. faecium GC 2243; GC2243, read-out: MINIMAL INHIBITORY CONCENTRATION MIC, Human Serum): 4 mg/L (≈ 5.05 µM)
MIC (E. faecium GC 2243; GC2243, read-out: MINIMAL INHIBITORY CONCENTRATION MIC, Mouse Serum): 1 mg/L (≈ 1.26 µM)
MIC (E. faecium GC 2243; GC2243, read-out: MINIMAL INHIBITORY CONCENTRATION MIC, Water): 4 mg/L (≈ 5.05 µM)
MIC (S. epidermidis GC 4935; GC4935, read-out: MINIMAL INHIBITORY CONCENTRATION MIC, Human Serum): 2 mg/L (≈ 2.53 µM)
MIC (S. epidermidis GC 4935; GC4935, read-out: MINIMAL INHIBITORY CONCENTRATION MIC, Mouse Serum): 2 mg/L (≈ 2.53 µM)
MIC (S. epidermidis GC 4935; GC4935, read-out: MINIMAL INHIBITORY CONCENTRATION MIC, Water): 4 mg/L (≈ 5.05 µM)
MIC (S. aureus GC 6335; GC6335, read-out: MINIMAL INHIBITORY CONCENTRATION MIC, Human Serum): 0.5 mg/L (≈ 0.631 µM)
MIC (S. aureus GC 6335; GC6335, read-out: MINIMAL INHIBITORY CONCENTRATION MIC, Mouse Serum): 0.5 mg/L (≈ 0.631 µM)
MIC (S. aureus GC 6335; GC6335, read-out: MINIMAL INHIBITORY CONCENTRATION MIC, Water): 1 mg/L (≈ 1.26 µM)
MIC (c. albicans GC 3066; Candida albicans, GC3066, read-out: MINIMAL INHIBITORY CONCENTRATION MIC): > 64 mg/L
MINIMAL INHIBITORY CONCENTRATION MIC (c. albicans GC 3066; Human Serum): >64 UG/ML
MINIMAL INHIBITORY CONCENTRATION MIC (c. albicans GC 3066; Mouse Serum): >64 UG/ML
MIC (E. coli GC 2271; GC2271, read-out: MINIMAL INHIBITORY CONCENTRATION MIC, Human Serum): 32 mg/L (≈ 40.4 µM)
MIC (E. coli GC 2271; GC2271, read-out: MINIMAL INHIBITORY CONCENTRATION MIC, Mouse Serum): 1 mg/L (≈ 1.26 µM)
MIC (E. coli GC 2271; GC2271, read-out: MINIMAL INHIBITORY CONCENTRATION MIC, Water): > 64 mg/L
MIC (E. faecalis GC 2267; GC2267, read-out: MINIMAL INHIBITORY CONCENTRATION MIC, Human Serum): 4 mg/L (≈ 5.05 µM)
MIC (E. faecalis GC 2267; GC2267, read-out: MINIMAL INHIBITORY CONCENTRATION MIC, Mouse Serum): 2 mg/L (≈ 2.53 µM)
MIC (E. faecalis GC 2267; GC2267, read-out: MINIMAL INHIBITORY CONCENTRATION MIC, Water): 16 mg/L (≈ 20.2 µM)
MIC (E. coli GC 3226; GC3226, read-out: MINIMAL INHIBITORY CONCENTRATION MIC, Human Serum): 64 mg/L (≈ 80.8 µM)
MIC (E. coli GC 3226; GC3226, read-out: MINIMAL INHIBITORY CONCENTRATION MIC, Mouse Serum): 2 mg/L (≈ 2.53 µM)
MIC (E. coli GC 3226; GC3226, read-out: MINIMAL INHIBITORY CONCENTRATION MIC, Water): > 64 mg/L
MIC (E. coli GC 1073; GC1073, read-out: MINIMAL INHIBITORY CONCENTRATION MIC, Human Serum): 64 mg/L (≈ 80.8 µM)
MIC (E. coli GC 1073; GC1073, read-out: MINIMAL INHIBITORY CONCENTRATION MIC, Mouse Serum): 2 mg/L (≈ 2.53 µM)
MIC (E. coli GC 1073; GC1073, read-out: MINIMAL INHIBITORY CONCENTRATION MIC, Water): > 64 mg/L
MIC (E. coli GC 2203; GC2203, read-out: MINIMAL INHIBITORY CONCENTRATION MIC, Human Serum): 32 mg/L (≈ 40.4 µM)
MIC (E. coli GC 2203; GC2203, read-out: MINIMAL INHIBITORY CONCENTRATION MIC, Mouse Serum): 2 mg/L (≈ 2.53 µM)
MIC (E. coli GC 2203; GC2203, read-out: MINIMAL INHIBITORY CONCENTRATION MIC, Water): > 64 mg/L
SMILES: Cc1cc(C)cc(C(=O)OCOC(=O)N(CC(=O)Nc2cc(N(C)C)c3c(c2O)C(=O)C2=C(O)[C@]4(O)C(=O)C(C(N)=O)=C(O)[C@@H](N(C)C)[C@@H]4C[C@@H]2C3)C(C)(C)C)c1 [Example 51]
